Source: publication PMC6100073, “Activation of Anthracene Endoperoxides in Leishmania and Impairment of Mitochondrial Functions” (Molecules : A Journal of Synthetic Chemistry and Natural …, 2018)
Like-named read-outs stand apart in the source and are kept apart here.

What was measured:
LtP = test: EPR (CMH oxidation): superoxide formation in LtP; assay type: cell-based, Leishmania tarentolae; conditions: 20 µM AA or 100 µM other compounds, 500 × 10^6 LtP/mL, 400 µM CMH, DFO, DTPA, 5 min, 25 °C
Method: To measure superoxide radical (O2^•−) formation induced by AcEPs in LtP, EPR spectroscopy was used. An aliquot of the cell broth was transferred into an Eppendorf tube that was centrifuged (Hettich Universal 16, 20 °C, 2000× g, 10 min). The supernatant was discarded, the cell pellet was resuspended in PBS and centrifuged again. After removal of the supernatant, the cell pellet was resuspended in a mixture of PBS, 15 mM glucose (PBS/Glu), DFO (100 µM), and DTPA (25 µM). […] The cell suspension was aliquoted. CMH was added as detection agent leading to a final concentration of 400 µM. After 5 min of incubation at 25 °C, the respective substance was added resulting in final concentrations of 20 µM antimycin A (AA) or 100 µM of AcEP1117, AcEP1118, AcEP1129, AcEP1130, Ac, and AQ. Samples containing LtP and CMH were used as negative control. Samples containing PBS/Glu and CMH were used as negative control as well. After 5 min of incubation at 25 °C with the respective substance, aliquots of 17 µL of the cell suspensions were aspirated into a PTFE tube (outer diameter 0.7 mm). The tube was transferred into the MD5 resonator of the EPR spectrometer. Immediately, the measurement was started using the following parameters: microwave frequency 9.684 GHz; microwave power 20 mW, modulation frequency 100 kHz; modulation amplitude 1 G; time constant 0.82 s; center field 3449 G; scan rate 14 G/min; sweep width 100 G; scan time 419 s; attenuation 2.52 × 10^4; and scans 5.

[1] = tested on: axenic Leishmania tarentolae amastigotes (axLtA); test: MTT viability assay in axenic Leishmania tarentolae amastigotes; assay type: cell-based
Method: An aliquot of the original LtP culture broth that was equivalent to 108 × 10^6 cells was centrifuged at 2000× g for 10 min (Sorvall RC26 Plus, rotor: SH-3000, Thermo Fisher Scientific, Waltham, MA, USA). The resulting supernatant was discarded, and the cell pellet was resuspended in 10 mL of Schneider’s medium (adjusted to a pH of 4.5 using HCl; containing 50% FCS, 25,000 U/L penicillin, and 25 mg/L streptomycin). The cell suspension was transferred and cultured in a 50 mL TubeSpin bioreactor at 32 °C. Every 3–4 days, the cells were passaged. Therefore, the cell broth was centrifuged at 2000× g for 10 min, and the supernatant was discarded. The cells were resuspended in fresh medium. During the first 14 days, after the culture was started, the cells transformed from the promastigote to the axenic amastigote state (axLtA). Subsequent to this initial period, the axenic amastigotes were passaged every 3–4 days. To determine cell density of the broth, an aliquot of the suspension, usually 1 mL, was transferred into an Eppendorf tube. The cells were then diluted 1:2 up to 1:40 using PBS, depending on the cell density of the broth. An aliquot of 20 µL of this dilution was further diluted 1:2 with a 2% formaldehyde solution (in PBS). Of this final suspension, 10 µL were transferred to each counting chamber of a standard Neubauer chamber (VWR, Wien, Austria). The cells were incubated for 5 min at 25 °C to let them sediment. Photographs of the counting chambers were taken using a light microscope (Lacerta LIS-5 microscope, Lacerta GmbH, Vienna, Austria) with an attached camera. The photos were obtained at a magnification of 100×. Four photos of every counting chamber were taken, resulting in a total of eight photos. The pictures were then analyzed with the Fiji ImageJ (2.0.0) software (Wayne Rasband, National Institutes of Health (NIH), Bethesda, Maryland (MD), USA). The results were averaged giving the final cell number of the culture broth.
Owing to the acidic conditions needed for axLtA (pH 4.5), viability assays with axLtA were carried out using MTT instead of resazurin that is unstable in an acidic environment. Cell suspensions (200 µL) of axLtA (6 × 10^6 parasites/mL) in Schneider’s medium (pH = 4.5), containing 25,000 U/L penicillin, 25 mg/L streptomycin, and 50% FCS were prepared and distributed in 96-well round-bottom microplates. Then compounds were added (leading to a final vehicle concentration of max. 2% DMSO in the wells). Subsequently, five 1:5 serial dilution steps were performed. Control rows were loaded with 200 µL of either Schneider’s medium or axLtA suspension. After incubation at 32 °C for 48 h, 20 µL of MTT solution (in PBS) were added to each well (1 mM final concentration) and incubated for additional 4 h. Then plates were centrifuged at 400× g for 5 min (Hettich Rotina 420, Tuttlingen, Germany), and the supernatant was discarded. DMSO (100 µL) was added to each well and incubated at 32 °C for 10 min. Then the OD at 570 nm and 630 nm was determined using a plate reader (Perkin Elmer Enspire, Rodgau, Germany).
Calculations were carried out using Microsoft Excel (Microsoft). The graphs were created using Origin 6.1 (OriginLab Corporation, Northampton, MA, USA). The half maximal inhibitory concentrations (IC50) were determined from non-linear concentration–response curves using a four-parameter logistic model and expressed as the mean ± standard deviation (SD). Statistically significant differences of p <0.05 were identified using Students t-test.

[2] = Leishmania tarentolae, 48 h, pH 4.5, MTT assay, endpoint at 48 h, 6 × 10^6 axLtA/mL, pH 4.5, read-out: IC50 (µM) Mean ± SD axLtA

| SMILES | CMH oxidation (superoxide radical formation) in LtP (LtP) | IC50 [1, 2] [µM] | IC50 ([1]; Leishmania tarentolae, 48 h, pH 4.5, read-out: IC50 (µM) Mean ± SD axLtA, MTT assay, endpoint at 48 h, 6 × 10^6 axLtA/mL, pH 4.5) [µM] | IC50 ([1]; MTT assay, endpoint at 48 h, 6 × 10^6 axLtA/mL, pH 4.5, read-out: IC50 (µM) Mean ± SD axLtA) [µM] |
| --- | --- | --- | --- | --- |
| c1ccc2c(c1)C1OOC2c2ccccc21 [AcEP1117, 9,10-dihydro-9,10-epidioxidoanthracene] | failed to cause any enhanced oxidation of CMH | 56.4 ± 15 |  |  |
| CCc1ccc2c(c1)C1OOC2c2ccccc21 (centres unmarked) [AcEP1130, 2-ethyl-9,10-dihydro-9,10-epidioxidoanthracene] | an increased CMH oxidation rate occurred | 15.3 ± 0.31 |  |  |
| O=C1c2ccccc2C(=O)c2ccccc21 [AQ, anthraquinone, reference compound] | did not trigger additional CMH oxidation in LtP | 369 ± 9.81 |  |  |
| c1ccc2cc3ccccc3cc2c1 [Ac, anthracene] | did not trigger additional CMH oxidation in LtP |  | > 400 |  |
| N=C(N)c1ccc(OCCCCCOc2ccc(C(=N)N)cc2)cc1 [Pen, pentamidine, reference compound] |  | < 1 |  | 0.67 ± 0.31 |
| CC12OOC(c3ccccc31)c1ccccc12 [AcEP1129, 9-methyl-9,10-dihydro-9,10-epidioxidoanthracene] | an increased CMH oxidation rate occurred | 3.29 ± 0.13 |  |  |
| CC12OOC(C)(c3ccccc31)c1ccccc12 [AcEP1118, 9,10-dimethyl-9,10-dihydro-9,10-epidioxidoanthracene] | failed to cause any enhanced oxidation of CMH | 6.43 ± 0.4 |  |  |
